Assay results from a melting point compilation (Tetko et al.; mined from patent text by program, amines drawn as free bases though some values may be those of a salt).

Compound	melting point
COC(=O)CC[C@H](NC(=O)OCc1ccccc1)C(=O)O	61 to 63 °C
CC(=O)Oc1c(C(=O)N2CCc3ccccc32)c(=O)n2c3c(cc(N)cc13)OCC2	220 to 225 °C
CC(C)=CCCC(C)=CCOc1ccc(C(=O)NCC(=O)Nc2ccccn2)cc1	105 to 106 °C
CCn1ncc2c1ncc1c(SC)nc3cc(C)nn3c12	168 to 169 °C
Fc1ccc(NC(=S)NN2CC=C(c3ccccc3)CC2)cc1	192 to 194 °C
CN(Cc1cc2c3c(c1)c(=O)c(C(=O)NCc1ccc(Cl)cc1)cn3CC(=O)N2C)C[C@@H](O)c1nccs1	125 to 130 °C
CCOC(=O)c1ccc(C(F)(F)F)c(N(C)C(C)=O)n1	145 to 146 °C
CONc1nc(C#Cc2ccccc2)nc2c1ncn2[C@@H]1O[C@H](CO)[C@@H](O)[C@H]1O	175 to 177 °C
O=C(NN1CCCCC1)NS(=O)(=O)c1ccc(CCN2C(=O)c3ccccc3C2(O)c2ccccc2)cc1 (stereo not drawn)	228 °C
CN(Cc1ccc(NC(=O)C2=Cc3cc(-c4ccc(C#N)cc4)ccc3S(=O)(=O)CC2)cc1)C1CCOCC1	233 to 236 °C
CC(C)c1cccc(C(C)C)c1NC(=O)NC1CCOc2ccccc2C1 (stereo not drawn)	184 to 186 °C
O=C1CCC(Nc2nccc(-n3ncc4ccccc43)n2)CC1	212 to 213 °C
CCOC(=O)C1=COc2cc(C(C)=O)ccc2O1	122 °C
O=C1CCC(N2Cc3c(OCc4ccc(CNC5CCCCC5)cc4)cccc3C2=O)C(=O)N1 (stereo not drawn)	175 to 177 °C
NCCn1nc2c3c(c(Cl)ccc31)C(=O)c1c(OCc3ccccc3)ccc(OCc3ccccc3)c1-2	176 to 178 °C
CC(C)S(=O)(=O)c1cccc(-c2nc(=O)c3ccccc3s2)n1	205 to 206 °C
CC(C)(C)Nc1cc(NC(C)(C)C)nc(N2CCNCC2)n1	135 to 138 °C
C=CC(=O)NCc1c(-c2ccccc2)noc1C	149 to 151 °C
COc1ccc(CCc2cc(OC)c(OC)cc2C)cc1OC	102 °C
Cc1cc(C)cc(COC(=O)C(Cc2c[nH]c3ccccc23)NC(=O)c2ccccc2)c1 (stereo not drawn)	133 to 134 °C

Compound	melting point
N#CCCN1CCC(c2ccccc2)(c2ccccc2)CC1	95 to 96 °C
Cn1ccc(-c2nnc(Cc3ccc(F)cc3)o2)c(O)c1=O	216 to 218 °C
CNC1=CC=CC(OCCCN2CCC(c3noc4cc(F)ccc34)CC2)(C(C)=O)C1 (stereo not drawn)	151 to 153 °C
CN(Cc1ccc(-c2ccc(O)c(Br)c2)cc1)C(=O)c1cn(C)c2ccccc12	237 to 239 °C
CCOC(=O)c1c(C2CC2)nn(CC)c1Cc1ccc(-c2ccccc2-c2nnn(C(c3ccccc3)(c3ccccc3)c3ccccc3)n2)cc1	164 to 168 °C
CC(Cl)c1nc2ccccc2c(=O)o1 (stereo not drawn)	90 °C
CCCCCCCCCCCCCCC1C(=O)OC2OC3(C)CCC4C(C)CCC1C24OO3 (single isomer, unassigned; (+))	65 to 66 °C
COc1ccc(CC(=O)NC(NC(=NC#N)Nc2cc(F)ccc2F)C(C)(C)C)cc1OC (stereo not drawn)	190 to 191 °C
O=C(C=Cc1cncnc1)CCCCc1ccc2c(n1)NCCC2	101 to 102 °C
CCn1nnnc1C(CO)=C(c1ccc(F)cc1)c1ccc(F)cc1	103 to 111 °C
CCc1nc2cc(F)ccc2n1C1CC2CCC(C1)N2CCCSc1ccc(F)cc1 (stereo not drawn)	127 to 128 °C
Cc1c(SCCCSc2ccc3ncc([N+](=O)[O-])n3n2)ccnc1C(S)c1nc2cc(S(C)(=O)=O)ccc2[nH]1 (stereo not drawn)	155 to 156 °C
CS(=O)(=O)c1ccc(-c2cc(C(F)F)nn2-c2cccc(C(F)(F)F)c2)cc1F	110 to 111 °C
CCCCCN1C(=O)CC(c2ccc(C(F)(F)F)cc2)C(C(=O)OCC)C1=O (stereo not drawn)	112 to 115 °C
Cc1nc2c(O)c(C(=O)[C@@H]3OC(C)(C)O[C@H]3c3ccccc3)ccc2n1C	233 °C
CCCC1(C)OC(=O)C(c2ccc(F)c(F)c2)=C1c1ccc(S(C)(=O)=O)cc1 (stereo not drawn)	89 to 90 °C
COCc1cc(-c2nnc3c4ccccc4c(OCc4ncn(C)n4)nn23)no1	236 °C
CC(Br)C(=O)c1cc2c(Cl)cccc2s1 (stereo not drawn)	104 to 106 °C
CCCc1nc2c(N)nc3ccccc3c2s1	140 to 142 °C
COC(=O)CCc1cccc(Cl)c1C(=O)CCCNC(C)=O	51 to 52 °C

More lines, now with the values ahead:

melting point	Compound
234 to 235 °C	O=C(Nc1ccncc1)c1ccc(-n2nc(C(F)(F)F)cc2C(F)(F)F)cc1
198 °C	O=C(O)c1ccc([N+](=O)[O-])cc1NC(=O)C(F)(F)F
142 to 143 °C	CC(=O)Nc1ccc(C(=O)Oc2ccccc2)c(OC(C)=O)c1
64.5 to 66 °C	O=C(Cl)C=Cc1c(Cl)cccc1Cl
154 to 157 °C	N#Cc1ccc(C(=O)CNc2ccc(Br)cc2)cc1
170 to 175 °C	COc1cc(-n2nc(Cl)cc2-c2ccc(S(C)(=O)=O)cc2)ccc1[N+](=O)[O-]
74 °C	CCOc1ccc(CCNC(=O)/C=C/c2cccs2)cc1S(=O)(=O)NC(=S)NC
184 °C	CCCOc1ccccc1-c1nc(N)cc(=O)[nH]1
207 °C	O=Cc1ccc(OCc2ccccc2)c2[nH]c(C(=O)O)cc12
82 to 85 °C	CCN1CC(=O)N(c2ccccc2C(F)(F)F)C1=S
129 to 131 °C	Clc1ccc(N2CCN(CCCc3c4c(nn3-c3ccc(Cl)cc3)CCCC4)CC2)cc1
193 °C	COc1ccc(C2CCCCC2)cc1-c1csc(NC(=O)C2CCN(C(=O)OC(C)(C)C)CC2)n1
145 °C	COc1ccc(Cl)cc1C(=O)NCCc1ccc(-c2ccc(OC(C)(C)C(=O)O)cc2)cc1
246 to 249 °C	O=S1(=O)CC(=Cc2ccc(Cl)cc2)C2=NN(c3ccccc3)C(c3ccc(Cl)cc3)C2C1 (stereo not drawn)
> 270 °C	CN1C(=O)CCCc2ccc(NC(=O)c3ccc(C(=O)O)cc3)cc21
96 to 98 °C	O=C(CBr)Nc1cccc(OC(=O)CBr)c1
144 °C	C=CCc1cc(C(N)=NO)ccc1O
265 to 267 °C	COc1cc(Br)c(Br)cc1C=NNC(=N)NN=Cc1cc(Br)c(Br)cc1OC
64.5 to 65.5 °C	COc1nc(-c2cc(C)c(OCCCc3cc(C)no3)c(C)c2)no1
57 to 62 °C	COC(OC)C(C)Nc1cc(OCc2ccccc2)ccc1[N+](=O)[O-] (stereo not drawn)

melting point	Compound
220 to 221 °C	CC1(C)CCC(C)(C)c2cc(C(O)C(=O)Nc3ccc(C(=O)O)cc3)ccc21 (stereo not drawn)
132 to 133 °C	CCN(CC)CC1CCCCN1CCNC(=O)N1c2ccccc2NC(=O)c2csc(C)c21 (stereo not drawn)
142 °C	COc1ccc(CN2CCN(C3=NC4(C=CC(=O)C=C4)C(c4ccc(OC)cc4)=C3)CC2)cc1
205 to 206 °C	CC(=O)c1c(Br)[nH]c(-c2ccncc2)c1C
140 to 142 °C	CCCc1c(OCCCCCc2c(Cl)ccc(OC)c2OC)ccc(C(=O)O)c1O
106 to 108 °C	CN1CCN(C2Cc3ccccc3Sc3cc(F)c(F)cc32)CC1 (stereo not drawn)
143 to 145 °C	NSc1nc(-c2ccccc2Cl)ns1
63 to 66 °C	CCOC(=O)N1C[C@H](O)C[C@H]1CCOc1ccc(Br)cc1CCc1ccccc1
305 to 306 °C	N#Cc1ccc(-c2cnc(-c3ccc(C#N)cc3)nc2)cc1
169 to 170 °C	COC(=O)CC/C(C)=C/Cc1c(OC)c(C)c2c(c1C(=O)O)C(=O)OC2
116 to 120 °C	C[C@@H]1Cc2ccsc2[C@H](C)N1CCNC(=O)c1ccccn1 (relative stereo)
146 to 147 °C	COCc1c(C(=O)OC(C)C)ncc2c1c1c(OCc3ccccc3)cccc1n2CC(=O)N(C)CCc1ccccc1
116 to 118 °C	CCc1c(Cl)nc(NC=O)nc1Cl
177 to 179 °C	N#Cc1ccccc1-n1nnc2cccnc21
176 to 177 °C	CCOCc1nc2c(N)nc3cc(Br)ccc3c2n1CC1COC(C)(C)O1 (stereo not drawn)
161 to 163 °C	O=C1C(=O)N(CC(F)(F)F)c2ccccc21
158 to 159 °C	Cc1nc(OCC=C(F)F)c(C#N)c(N2CCc3ccccc3CC2)n1
361 to 363 °C	O=c1c2c(Cl)cc(Cl)cc2[nH]c2c(O)nn(-c3ccccc3)c(=O)c12
179 to 180 °C	CC(Sc1nc(N)cc(Cl)n1)c1nccc2ccccc12 (stereo not drawn)
> 260 °C	COc1ccc(-c2ccc(-c3nc(N)nc(N)n3)cc2)cc1

melting point	Compound
84 to 87 °C	COc1c(OCCOc2ccc(C(C)(C)C)cc2)ccnc1C
85 to 88 °C	CCCCCC(O)CCn1[nH]c(=O)n(C)c1=O (stereo not drawn)
87 to 93 °C	CCC(=N)NC(=O)OC
225 °C	O=C(O)c1ccc(-c2ncn(-c3ccc(C(F)(F)C(F)(F)C(F)(F)F)cc3)n2)cc1
134 °C	Cc1ccc(C(=O)c2cc(-c3cccnc3)c(N3CCOCC3)s2)cc1
134 °C	CCOC(Cn1cc[nH]c1=O)c1ccc(OC)c(OC)c1 (stereo not drawn)
261 to 263 °C	O=C(O)c1ccc(COCc2csc3nc(C(=O)NCc4cccc(C(F)(F)F)c4)[nH]c(=O)c23)cc1
140 to 141 °C	NC(=O)c1ccc(C(F)(F)F)cc1-c1cnccc1Oc1cccc(CCC(=O)N2CCN(Cc3ccc4c(c3)OCO4)CC2)c1
295 °C	O=c1ccc2ccc(Br)cc2[nH]1
99 °C	COC(OC)C(CC#N)C(C)(C)S(=O)(=O)c1ccc(C)cc1 (stereo not drawn)
72 to 74 °C	Cc1nc(Cl)c2nnn(-c3ccc(C(C)C)cc3Br)c2n1
269 to 270 °C	CC(C)C1C(=O)NC(c2ccc(NC(=O)CCl)cc2)c2ccccc21 (stereo not drawn)
121 to 123 °C	CC1CN(c2ccccc2)C(=O)N(c2cccc(C(F)(F)F)c2)C1 (stereo not drawn)
75 to 77 °C	CCCCCCCCCCCCOc1cc(O)c(C(=O)c2ccccc2)cc1Cl
125 °C	CCOC1=N[C@@H](C(C)C)C(=O)N[C@]1(C)Cc1ccccc1
66 °C	CCC1=Nc2ccccc2CC(c2ccc(C)s2)N1C (stereo not drawn)
162 to 164 °C	Cc1[nH]ccc(=O)c1OCc1ccccc1
104 to 105 °C	Fc1ccc(C2CCN(CCN(CCN3CCC(c4ccc(F)cc4)CC3)c3ccccc3)CC2)cc1
